Marks after values point to notes of the source that are not given here.
Legend:
Type in all cases: in vivo, Sprague-Dawley (SD) rats
[1] = test system: neuron apoptosis-operated rats; experiment: Example 1 body swing test
Protocol: Sensorimotor function was evaluated by use of limb placing de Ryck M et al., Stroke. 20:1383-90(1989)) and body swing (Borlongan and Sanberg, J Neurosci. 15:5372-8(1995)) tests. These tests were performed one day before neuron apoptosis to obtain a baseline and then at 1, 3, 7, 14, 21 and 28 days after neuron apoptosis. Behavioral tests were done before drug administration on days when both were scheduled. The investigator performing the surgery and behavioral assessments was blinded to treatment assignment.
(§1) Body swing tests: Animals were held approximately 2 cm from the base of its tail and elevated to an inch above a surface of a table. A swing was recorded whenever the rat moved its head out of the vertical axis to either side by more than 10° from vertical and then returned to the vertical position. Thirty total swings were counted per animal. After right-hemisphere neuron apoptosis, animals tend to swing to the contralateral (left) side. Thus, the numbers and percentages of body swings to the ipsilateral (right) side were recorded as a measure of recovery, with an intact animal scoring.
All data were expressed as mean±standard deviation (S.D.) of ten rats. Multiple comparison tests for different dose groups were conducted. Variance homogeneity was examined using the Levene test (Levene A, Clin Otalary, 1981; 6:145-51). […] Statistical analyses were conducted using SPSS (Release 14K, SPSS Inc., USA; Ludbrook, Clin Exp Pharmacol Physiol, 1997; 24:294-6). In addition, the percent changes between neuron apoptosis control and mirodenafil treated rats were calculated to help the understanding of the efficacy of test material as follow equation 3. Percentage changes as compared with neuron apoptosis control (%)=[((Data of mirodenafil treated groups−Data of neuron apoptosis control)/Data of neuron apoptosis control)×100] [EQUATION 3]

[2] = test system: neuron apoptosis-operated rats; experiment: Example 2 hindlimb placing test
Protocol: (§2) Sensorimotor function was evaluated by use of limb placing (de Ryck M et al., Stroke. 20:1383-90(1989)) and body swing (Borlongan and Sanberg, J Neurosci. 15:5372-8(1995)) tests. These tests were performed at 1 and 28 days after neuron apoptosis. The investigator performing the surgery and behavioral assessments was blinded to treatment assignment.
Limb placing test: Forelimb and hindlimb placement were assessed independently. For the forelimb placing test, the rats were held by their torso with their forepaws hanging free and moved slowly toward the edge of a tabletop, stopping short of touching the vibrissae (for vision-induced placing), touching the vibrissae (for vibrissae-induced placing), making light contact with the front of the forepaw to the edge of the tabletop (for tactile-induced placing), and pressing the forepaws to the edge of the table with increased pressure (for proprioceptive-induced placing). Hindlimb placing was conducted in the same manner as above but with tactile and proprioceptive stimulation applied to the front/top of each hindlimb. Each limb for placing in response to visual, vibrissae, tactile, and proprioceptive stimulation are scored in the following manner: normal performance=0 points; performance with unilateral limb=1 point; performance with a delay (2 seconds) and/or incomplete=2 point; no performance=3 points. A total of 12 points in forelimb placing test and 6 points in hindlimb placing test means maximal neurological deficit, and 0 points means normal performance.
All data were expressed as mean±standard deviation (S.D.) of ten rats. Multiple comparison tests for different dose groups were conducted. Variance homogeneity was examined using the Levene test (Levene A, Clin Otalary, 1981; 6:145-51). […] In addition, the percent changes as compared with neuron apoptosis control and mirodenafil treated rats were calculated to help the understanding of the efficacy of test substances as follow Equation 6 and 7. […]

[3] = Example 1 body weight measurements; conditions: for Weight gains [B − A]: during 29 days after neuron apoptosis
[4] = test system: neuron apoptosis-operated rats; experiment: Example 2 body swing test
Protocol: as §2, §1
All data were expressed as mean±standard deviation (S.D.) of ten rats. Multiple comparison tests for different dose groups were conducted. Variance homogeneity was examined using the Levene test (Levene A, Clin Otalary, 1981; 6:145-51). […] Statistical analyses were conducted using SPSS for Windows (Release 14K, SPSS Inc., USA; Ludbrook, Clin Exp Pharmacol Physiol, 1997; 24:294-6). In addition, the percent changes as compared with neuron apoptosis control and mirodenafil treated rats were calculated to help the understanding of the efficacy of test substances as follow Equation 6 and 7. Percentage Changes as Compared with Sham Control (%)=[((Data of neuron apoptosis control−Data of sham control rat)/Data of sham control rats)×100] [EQUATION 6] Percentage Changes as Compared with neuron apoptosis Control (%)=[((Data of test material treated rats−Data of neuron apoptosis control rats)/Data of neuron apoptosis control rats)×100] [EQUATION 7]

[5] = 0.5 mg/kg group, day 1 after operation (before drug administration)
[6] = 0.5 mg/kg group, day −1 (baseline)
[7] = 0.5 mg/kg s.c. once a day, day 3 after operation
[8] = 0.5 mg/kg s.c. once a day, day 7 after operation
[9] = 0.5 mg/kg s.c. once a day, day 14 after operation
[10] = 0.5 mg/kg s.c. once a day, day 21 after operation
[11] = 0.5 mg/kg s.c. once a day, day 28 after operation
[12] = 1 mg/kg group, day 1 after operation (before drug administration)
[13] = 1 mg/kg group, day −1 (baseline)
[14] = 1 mg/kg s.c. once a day, day 3 after operation
[15] = 1 mg/kg s.c. once a day, day 7 after operation
[16] = 1 mg/kg s.c. once a day, day 14 after operation
[17] = 1 mg/kg s.c. once a day, day 21 after operation
[18] = 1 mg/kg s.c. once a day, day 28 after operation
[19] = 2 mg/kg group, day 1 after operation (before drug administration)
[20] = 2 mg/kg group, day −1 (baseline)
[21] = 2 mg/kg s.c. once a day, day 3 after operation
[22] = 2 mg/kg s.c. once a day, day 7 after operation
[23] = 2 mg/kg s.c. once a day, day 14 after operation
[24] = 2 mg/kg s.c. once a day, day 21 after operation
[25] = 2 mg/kg s.c. once a day, day 28 after operation
[26] = 1 mg/kg from 24 hrs after surgery
[27] = 1 mg/kg from 72 hrs after surgery
[28] = 1 mg/kg from 168 hrs after surgery

CCCOc1ccc(S(=O)(=O)N2CCN(CCO)CC2)cc1-c1nc2c(CCC)cn(CC)c2c(=O)[nH]1 [Mirodenafil, mirodenafil]
The numbers of body swings to the ipsilateral right sides/total 30 body swings [1, 5]: 1.40 ± 1.17^a
The percentages of body swings to the ipsilateral right sides/total 30 body swings [1, 5]: 4.67 ± 3.91^a %
The numbers of body swings to the ipsilateral right sides/total 30 body swings [1, 6]: 15.10 ± 0.99
The percentages of body swings to the ipsilateral right sides/total 30 body swings [1, 6]: 50.33 ± 3.31%
The numbers of body swings to the ipsilateral right sides/total 30 body swings [1, 7]: 2.10 ± 1.37^a
The percentages of body swings to the ipsilateral right sides/total 30 body swings [1, 7]: 7.00 ± 4.57^a %
The numbers of body swings to the ipsilateral right sides/total 30 body swings [1, 8]: 2.40 ± 1.26^a
The percentages of body swings to the ipsilateral right sides/total 30 body swings [1, 8]: 8.00 ± 4.22^a %
The numbers of body swings to the ipsilateral right sides/total 30 body swings [1, 9]: 4.20 ± 1.62^ac
The percentages of body swings to the ipsilateral right sides/total 30 body swings [1, 9]: 14.00 ± 5.40^ac %
The numbers of body swings to the ipsilateral right sides/total 30 body swings [1, 10]: 5.40 ± 1.26^ab
The percentages of body swings to the ipsilateral right sides/total 30 body swings [1, 10]: 18.00 ± 4.22^ab %
The numbers of body swings to the ipsilateral right sides/total 30 body swings [1, 11]: 6.20 ± 1.99^ac
The percentages of body swings to the ipsilateral right sides/total 30 body swings [1, 11]: 20.67 ± 6.63^ac %
numbers and percentages of body swings to ipsilateral right sides, change as compared with neuron apoptosis control ([1]; 0.5 mg/kg, 3 days after surgery): 16.67%
numbers and percentages of body swings to ipsilateral right sides, change as compared with neuron apoptosis control ([1]; 0.5 mg/kg, 7 days after surgery): 9.09%
numbers and percentages of body swings to ipsilateral right sides, change as compared with neuron apoptosis control ([1]; 0.5 mg/kg, 14 days after surgery): 44.83%
numbers and percentages of body swings to ipsilateral right sides, change as compared with neuron apoptosis control ([1]; 0.5 mg/kg, 21 days after surgery): 50.00%
numbers and percentages of body swings to ipsilateral right sides, change as compared with neuron apoptosis control ([1]; 0.5 mg/kg, 28 days after surgery): 44.19%
The numbers of body swings to the ipsilateral right sides/total 30 body swings [1, 12]: 1.30 ± 0.95^a
The percentages of body swings to the ipsilateral right sides/total 30 body swings [1, 12]: 4.33 ± 3.16^a %
The numbers of body swings to the ipsilateral right sides/total 30 body swings [1, 13]: 15.10 ± 1.29
The percentages of body swings to the ipsilateral right sides/total 30 body swings [1, 13]: 50.33 ± 4.29%
The numbers of body swings to the ipsilateral right sides/total 30 body swings [1, 14]: 2.70 ± 0.82^a
The percentages of body swings to the ipsilateral right sides/total 30 body swings [1, 14]: 9.00 ± 2.74^a %
The numbers of body swings to the ipsilateral right sides/total 30 body swings [1, 15]: 3.10 ± 0.88^a
The percentages of body swings to the ipsilateral right sides/total 30 body swings [1, 15]: 10.33 ± 2.92^a %
The numbers of body swings to the ipsilateral right sides/total 30 body swings [1, 16]: 5.80 ± 1.23^ab
The percentages of body swings to the ipsilateral right sides/total 30 body swings [1, 16]: 19.33 ± 4.10^ab %
The numbers of body swings to the ipsilateral right sides/total 30 body swings [1, 17]: 7.30 ± 1.89^ab
The percentages of body swings to the ipsilateral right sides/total 30 body swings [1, 17]: 24.33 ± 6.30^ab %
The numbers of body swings to the ipsilateral right sides/total 30 body swings [1, 18]: 11.50 ± 1.58^ab
The percentages of body swings to the ipsilateral right sides/total 30 body swings [1, 18]: 38.33 ± 5.27^ab %
numbers and percentages of body swings to ipsilateral right sides, change as compared with neuron apoptosis control ([1]; 1 mg/kg, 3 days after surgery): 50.00%
numbers and percentages of body swings to ipsilateral right sides, change as compared with neuron apoptosis control ([1]; 1 mg/kg, 7 days after surgery): 40.91%
numbers and percentages of body swings to ipsilateral right sides, change as compared with neuron apoptosis control ([1]; 1 mg/kg, 14 days after surgery): 100.00%
numbers and percentages of body swings to ipsilateral right sides, change as compared with neuron apoptosis control ([1]; 1 mg/kg, 21 days after surgery): 102.78%
numbers and percentages of body swings to ipsilateral right sides, change as compared with neuron apoptosis control ([1]; 1 mg/kg, 28 days after surgery): 167.44%
The numbers of body swings to the ipsilateral right sides/total 30 body swings [1, 19]: 1.20 ± 0.63^a
The percentages of body swings to the ipsilateral right sides/total 30 body swings [1, 19]: 4.00 ± 2.11^a %
The numbers of body swings to the ipsilateral right sides/total 30 body swings [1, 20]: 15.00 ± 1.15
The percentages of body swings to the ipsilateral right sides/total 30 body swings [1, 20]: 50.00 ± 3.85%
The numbers of body swings to the ipsilateral right sides/total 30 body swings [1, 21]: 3.00 ± 0.82^ac
The percentages of body swings to the ipsilateral right sides/total 30 body swings [1, 21]: 10.00 ± 2.72^ac %
The numbers of body swings to the ipsilateral right sides/total 30 body swings [1, 22]: 3.20 ± 0.63^ac
The percentages of body swings to the ipsilateral right sides/total 30 body swings [1, 22]: 10.67 ± 2.11^ac %
The numbers of body swings to the ipsilateral right sides/total 30 body swings [1, 23]: 6.00 ± 1.56^ab
The percentages of body swings to the ipsilateral right sides/total 30 body swings [1, 23]: 20.00 ± 5.21^ab %
The numbers of body swings to the ipsilateral right sides/total 30 body swings [1, 24]: 8.80 ± 1.23^ab
The percentages of body swings to the ipsilateral right sides/total 30 body swings [1, 24]: 29.33 ± 4.10^ab %
The numbers of body swings to the ipsilateral right sides/total 30 body swings [1, 25]: 11.10 ± 1.91^ab
The percentages of body swings to the ipsilateral right sides/total 30 body swings [1, 25]: 37.00 ± 6.37^ab %
numbers and percentages of body swings to ipsilateral right sides, change as compared with neuron apoptosis control ([1]; 2 mg/kg, 3 days after surgery): 66.67%
numbers and percentages of body swings to ipsilateral right sides, change as compared with neuron apoptosis control ([1]; 2 mg/kg, 7 days after surgery): 45.45%
numbers and percentages of body swings to ipsilateral right sides, change as compared with neuron apoptosis control ([1]; 2 mg/kg, 14 days after surgery): 106.90%
numbers and percentages of body swings to ipsilateral right sides, change as compared with neuron apoptosis control ([1]; 2 mg/kg, 21 days after surgery): 144.44%
numbers and percentages of body swings to ipsilateral right sides, change as compared with neuron apoptosis control ([1]; 2 mg/kg, 28 days after surgery): 158.14%
hindlimb placing test scores at 28 days, change as compared with neuron apoptosis control [2, 26]: −65.22%
hindlimb placing test scores at 28 days, change as compared with neuron apoptosis control [2, 27]: −39.13%
hindlimb placing test scores at 28 days, change as compared with neuron apoptosis control [2, 28]: −17.39%
body weight gains during 29 days, change as compared with neuron apoptosis control ([3]; 0.5 mg/kg): 45.53%
Body weights at 29 days after surgery [B] ([3]; 0.5 mg/kg s.c. once a day): 502.60 ± 23.09^a
Weight gains [B − A] ([3]; 0.5 mg/kg s.c. once a day): −7.60 ± 9.19^a g
Body weights at 29 days after surgery [B] ([3]; 1 mg/kg s.c. once a day): 526.40 ± 23.45^bd
Weight gains [B − A] ([3]; 1 mg/kg s.c. once a day): 16.10 ± 7.80^ac g
Body weights at 29 days after surgery [B] ([3]; 2 mg/kg s.c. once a day): 520.90 ± 30.21^b
Weight gains [B − A] ([3]; 2 mg/kg s.c. once a day): 7.50 ± 11.20^ac g
numbers and percentages of body swings to ipsilateral right sides at 28 days, change as compared with neuron apoptosis control [4, 26]: 82.00%
numbers and percentages of body swings to ipsilateral right sides at 28 days, change as compared with neuron apoptosis control [4, 27]: 48.00%
numbers and percentages of body swings to ipsilateral right sides at 28 days, change as compared with neuron apoptosis control [4, 28]: 14.00%
